Results on one molecule are retold here after patent US6972111B1, “Rosin amine anti-fouling agents” (Bayer Aktiengesellschaft, priority 1999, dated 2005).

Structures are written as SMILES.

This assay has as its system cyprid larvae of the barnacle Balanus amphitrite. As to the kind of experiment: Settlement assay of cyprid larvae of the barnacle Balanus amphitrite. The class given is in vivo. As to conditions: cyprid larvae in seawater test solution, 27° C.±2; Spearman-Kärber method. The protocol:
The rate of settlement of laboratory reared cyprid larvae of the barnacle Balanus amphitrite was determined for testing the activity of candidate anti-fouling compounds. Settlement Assay Tests are carried out in four replicates in sterile polystyrene multi well plates. Between 25 and 40 cyprid larvae are injected in the dishes containing either 2 ml of test solution (see below), solvent control or a positive control (Dichloro-n-octyl-isothiazolinone). Dishes are incubated for 24 h at a temperature of 27° C.±2. After incubation the cyprids are screened for signs of toxicity. Larvae are classified in three categories: A) alive and swimming; B) alive but not active; C) dead. The test is terminated by addition of a drop of 20% formaldehyde and the numbers of settled and non-settled larvae are counted. Settlement is evaluated as follows: 1) Non settled: not attached free swimming cyprids; 2) settled cyprids: attached, but not metamorphosed cyprids; 3) barnacles: attached juvenile barnacles. Categories 2 and 3 are considered to be settled. Percentage settlement in test solution is compared with controls. Estimates of the median effect concentration (EC-50) after […]. are calculated using the Spearman-Kärber method. All seawater used is of natural origin and filtered unto 0.2 micron. […]

With `CCCCCCCCn1sc(Cl)c(Cl)c1=O` [reference*, 4,5-dichloro-n-octylisothiazolinone], the “EC50 for settlement inhibition in ppm” value is 0.37 ppm.
